Measured values as given in patent US20100305068A1, “COMPOUNDS AND METHODS FOR MODULATING PROTEIN TRAFFICKING” (priority 2006, published 2010).
Read-outs that look alike come from different tables or passages of the source.

System: pdr5 ypt1^ts cells
Assay: microbe, parasite or virus in culture
Assay type: cell-based, yeast
Conditions: for minimal effective concentration / optical density, ypt1-ts, 0.39 / optical density, ypt1-ts, 0.78 / optical density, ypt1-ts, 1.56 / optical density, ypt1-ts, 3.13 / optical density, ypt1-ts, 12.5 / optical density, ypt1-ts, 25 / optical density, ypt1-ts, 6.25: Table 2; for minimal effective concentration: lowest concentration tested giving growth above the 0 μM background, read-out: ypt1-ts MRC (minimal rescue concentration); for optical density, ypt1-ts, 0.39: 0.39 μM compound; for optical density, ypt1-ts, 0.39 / optical density, ypt1-ts, 0.78 / optical density, ypt1-ts, 1.56 / optical density, ypt1-ts, 3.13 / optical density, ypt1-ts, 12.5 / optical density, ypt1-ts, 25 / optical density, ypt1-ts, 6.25: background (0 μM) 0.058; for optical density, ypt1-ts, 0.78: 0.78 μM compound; for optical density, ypt1-ts, 1.56: 1.56 μM compound; for optical density, ypt1-ts, 3.13: 3.13 μM compound; for optical density, ypt1-ts, 12.5: 12.5 μM compound; for optical density, ypt1-ts, 25: 25 μM compound; for optical density, ypt1-ts, 6.25: 6.25 μM compound
Description: The activity of the compounds as modulators of protein trafficking may be measured in the assays described herein that evaluate the ability of a compound to rescue an impairment in protein trafficking. For example, the yeast mutant cell line ypt1^ts can be used to identify compounds that rescue cells from the lethal phenotype of a mutant YPT1 allele (see, e.g., Examples and Schmitt et al. (1988) Cell 53:635-47). The activity may be measured, for example, in a whole yeast cell assay using 384-well screening protocol and an optical density measurement.
The yeast mutant cell line ypt1^ts suppresses, in a temperature dependent fashion, the dominant-lethal phenotype of a mutant YPT1 allele (Schmitt et al. (1988) Cell 53:635-47). ypt1^ts cells grow normally at temperatures up to 30° C., but are growth arrested at 37° C. (Id.).
A library of compounds (“The Spectrum Collection”) obtained from Microsource Discovery Systems, Inc. (Gaylordsville, Conn.) was screened to assess the ability of individual compounds to restore growth of ypt1^ts cells. Screening was carried out using ypt1^ts cells containing a mutation in the pdr5 gene (resulting in inactivation of a membrane efflux pump). The effect of the compounds was measured in pdr5 ypt1^ts cells cultured at 37° C.

[1] = Saccharomyces cerevisiae, 37° C.
[2] = Table 3, 3.13 uM compound, 37° C., background (0 uM) 0.077
[3] = Table 3, 12.5 uM compound, 37° C., background (0 uM) 0.077
[4] = Table 3, 50 uM compound, 37° C., background (0 uM) 0.077

Row | Molecule | minimal effective concentration [1] | optical density, ypt1-ts, 0.39 (37° C.) | optical density, ypt1-ts, 0.78 (37° C.) | optical density, ypt1-ts, 1.56 (37° C.) | optical density, ypt1-ts, 3.13 (37° C.) | optical density, ypt1-ts, 12.5 (37° C.) | optical density, ypt1-ts, 25 (37° C.) | optical density, ypt1-ts, 6.25 (37° C.) | optical density, 3.13 uM [2] | optical density, 12.5 uM [3] | optical density, 50 uM [4] | minimal effective concentration (37° C.) | optical density, 3.13 uM | optical density, 12.5 uM | optical density, 50 uM
1 | CCCCC1C(=O)N(c2ccccc2)N(c2ccccc2)C1=O [PHENYLBUTAZONE, reference compound] | 6.25 µM | 0.1 | 0.084 | 0.094 | 0.11 | 0.227 | 0.452 | – | – | – | – | – | – | – | –
2 | O=C(/C=C(\O)c1ccccc1)c1ccccc1O [2',beta- DIHYDROXYCHALCONE] | 12.5 µM | 0.083 | 0.072 | 0.076 | 0.096 | 0.31 | 0.551 | 0.124 | – | – | – | – | – | – | –
3 | CC1(C)C(=O)C=C[C@@]2(C)C1C[C@@H](O)[C@]1(C)C2CC[C@@]2(C)[C@H](c3ccoc3)OC(=O)[C@H]3O[C@]321 (stereo partly shown) [DEACETYL- GEDUNIN] | – | – | – | – | – | – | – | – | 0.116 | 0.185 | 0.377 | – | – | – | –
4 | CC1(C)C(=O)C=C[C@@]2(C)C1CC(=O)[C@@]1(C)C3=CC(=O)O[C@@H](c4ccoc4)[C@]3(C)CCC12 (stereo partly shown) [7-DEACETOXY- 7-OXODEOXY- GEDUNIN] | – | – | – | – | – | – | – | – | 0.335 | 0.604 | 0.67 | – | – | – | –
5 | COC(=O)C(O)[C@H]1C(C)(C)[C@@H](OC(C)=O)[C@@H]2CC3=C4CC(=O)O[C@@H](c5ccoc5)[C@]4(C)CCC3[C@]1(C)C2=O (stereo partly shown) [SWIETENOLIDE- 3-ACETATE] | – | – | – | – | – | – | – | – | 0.425 | 0.629 | 0.619 | – | – | – | –
6 | C[C@]12CC[C@@H](O)C[C@H]1CCc1ccccc12 [3alpha- HYDROXY-4,4- BISNOR- 8,11,13- PODO- […]] | – | – | – | – | – | – | – | – | 0.074 | 0.104 | 0.408 | – | – | – | –
7 | CC(=O)[C@H]1CC[C@H]2[C@@H]3CCC4=CC(=O)CC[C@]4(C)[C@H]3CC[C@]12C [PROGESTERONE, reference compound] | 12.5 µM | 0.089 | 0.083 | 0.091 | 0.098 | 0.15 | 0.316 | 0.12 | – | – | – | – | – | – | –
8 | COc1cc(C)c2c(=O)cc(-c3ccccc3)oc2c1 [METHOXYVONE] | 12.5 µM | 0.095 | 0.09 | 0.09 | 0.105 | 0.142 | 0.258 | 0.114 | – | – | – | – | – | – | –
9 | CC(C)=CCOc1cc2oc(=O)ccc2cc1O [PRENYLETIN] | 25 µM | 0.087 | 0.072 | 0.07 | 0.087 | 0.121 | 0.292 | 0.09 | – | – | – | – | – | – | –
10 | C=CCCCCCCCCCCC/C=C/C(O)COC(C)=O (stereo not shown) [DEHYDRO- AVOCATIN - 1-ACETATE] | – | – | – | – | – | – | – | – | 0.116 | 0.329 | 0.365 | – | – | – | –
11 | DACTINOMYCIN [reference compound] | – | 0.093 | 0.071 | 0.082 | 0.104 | 0.663 | 0.669 | 0.351 | – | – | – | 6.25 µM | – | – | –
12 | COc1ccc(-c2coc3cc(O)cc(O)c3c2=O)cc1 [BIO- CHANIN A] | – | – | – | – | – | – | – | – | 0.112 | 0.297 | 0.055 | – | – | – | –
13 | CC(=O)O[C@@H]1CC2C(C)(C)C(=O)C=C[C@]2(C)C2CC[C@@]3(C)[C@H](c4ccoc4)OC(=O)[C@H]4O[C@]43[C@@]21C (stereo partly shown) [GEDUNIN] | – | – | – | – | – | – | – | – | 0.109 | 0.231 | 0.183 | – | – | – | –
14 | COc1ccc(-c2coc3cc(OC)ccc3c2=O)cc1 [7,4′- DIMETH- OXYISO- FLAVONE] | – | – | – | – | – | – | – | – | 0.222 | 0.551 | 0.513 | – | – | – | –
15 | NIMESULIDE [reference compound] | – | – | – | – | – | – | – | – | – | – | – | – | 0.098 | 0.147 | 0.539
16 | C=C1[C@H]2CC[C@@]3(C)[C@H](c4ccoc4)OC(=O)C[C@]13O[C@H]1C[C@@H](O)C(C)(C)[C@H](CC(=O)OC)[C@]12C [3alpha-HYDROXY-3- DEOXY[…] METHYL ESTER2] | 3.13 µM | 0.169 | 0.078 | 0.093 | 0.144 | 0.566 | 0.611 | 0.381 | – | – | – | – | – | – | –
17 | CHLORO- PHYLLIDE Cu COMPLEX Na SALT | – | – | – | – | – | – | – | – | 0.064 | 0.054 | 0.305 | – | – | – | –
18 | CC(C)OC(=O)Nc1cccc(Cl)c1 [CHLORPROPHAM] | 25 µM | 0.086 | 0.072 | 0.081 | 0.09 | 0.101 | 0.145 | 0.096 | – | – | – | – | – | – | –
19 | C=C1[C@H]2CC[C@@]3(C)[C@H](c4ccoc4)OC(=O)C[C@]13O[C@H]1C[C@H](O)C(C)(C)[C@H](CC(=O)OC)[C@]12C [3-DEOXY-3beta- HYDROXY- […] METHYL ESTER] | – | – | – | – | – | – | – | – | 0.384 | 0.641 | 0.621 | – | – | – | –
20 | CC1(C)C(=O)CC[C@@]2(C)C1C[C@@H](O)[C@@]1(C)C3=CC(=O)O[C@@H](c4ccoc4)[C@]3(C)CCC21 (stereo partly shown) [DIHYDRO- 7- […]- OXYGEDUNIN] | – | – | – | – | – | – | – | – | 0.197 | 0.568 | 0.328 | – | – | – | –
21 | CC(C)c1c(O)ccc2c1CCC1[C@@](C)(CO)CCC[C@]21C (stereo partly shown) [HYDROXY (19)TOTAROL] | 12.5 µM | 0.098 | 0.076 | 0.085 | 0.106 | 0.407 | 0.515 | 0.125 | – | – | – | – | – | – | –
22 | COC(=O)C[C@H]1C(C)(C)C(=O)[C@@H]2CC3=C4CC(=O)O[C@@H](c5ccoc5)[C@]4(C)CCC3[C@]1(C)C2=O (stereo partly shown) [MEXICANOLIDE] | 6.25 µM | 0.092 | 0.069 | 0.076 | 0.105 | 0.377 | 0.573 | 0.216 | – | – | – | – | – | – | –
23 | C[n+]1cc2c3c(ccc2c2ccc4cc5c(cc4c21)OCO5)OCO3.O=S(=O)([O-])O [SANGUINARINE SULFATE] | 12.5 µM | 0.092 | 0.076 | 0.077 | 0.089 | 0.165 | 0.345 | 0.111 | – | – | – | – | – | – | –
24 | C/C=C(\C)C(=O)O[C@@H]1c2c(ccc3ccc(=O)oc23)OC(C)(C)[C@@H]1OC(C)=O [PTERYXIN] | 6.25 µM | 0.103 | 0.078 | 0.096 | 0.124 | 0.26 | 0.479 | 0.134 | – | – | – | – | – | – | –
25 | CC/C(=C(/CC)c1ccc(O)cc1)c1ccc(O)cc1 [DIETHYLSTILBESTROL, reference compound] | 12.5 µM | 0.089 | 0.076 | 0.091 | 0.108 | 0.163 | 0.162 | 0.103 | – | – | – | – | – | – | –
